Key:
Assay type in all cases: in vivo, rat
MCAO rats = experiment: Regional cerebral blood flow (LDF), MCAO
Text: The rats were fixed pronely on the stereotaxic apparatus and subjected to craniotomy. After cleaning for operation visual field, bregma was used as an origin, and a site situated 2 mm behind and 3 mm right to the bregma was selected as a measuring point. The region […] around the site was thinned by a dental drill. In the process, the integrity of dura was maintained and large vessels were avoided. Probe holder was located and fixed.
The rats were supinely fixed on the operating table to carry out MCAO surgery. When a nylon line was inserted in ICA, it was not inserted into intracranial part until LDF value was stable, and blood flow value in 10 min was recorded, and an average value thereof is used as a baseline value of cerebral blood flow. After the MCAO surgery completed, the nylon line was inserted into the intracranial part. When the blood flow value suddenly declined to 20-30% of the baseline value, it was noted that the blood flow in MCA had been blocked. The blood flow value before MCAO in every group was used as a baseline value (100%) of the group. […] LDF value was determined at the same site before the animals was put to death.

tMCAO rats [1] = experiment: Neurobehavioral examination (Bederson's score), tMCAO time window study; settings: 2 hours ischemia and 24 hours reperfusion
Method: (§1) 1. In the test, transient middle cerebral artery occlusion (tMCAO) model of rats was adopted. The reperfusion was performed after focal cerebral ischemia for 2 hours so as to inspect therapeutic time window of pinocembrin after focal cerebral ischemia. The rats were administered by pinocembrin racemate (1 mg/kg, 5 mg/kg, intravenous injection) after reperfusion 1 hour, 4 hours and 6 hours (i.e., ischemia 3 hour, 6 hours and 8 hours). (R)-pinocembrin and (S)-pinocembrin (1 mg/kg, 5 mg/kg, intravenous injection) were administered after reperfusion 1 hour and 4 hours (i.e., ischemia 3 hour and 6 hours). The therapeutic time windows of these drugs in focal cerebral ischemia were assessed by studying their effects to neurological symptom scores, infarct sizes and brain water contents during 24 hours after tMCAO.
The CCA and ICA were clipped with artery clips. Two No. 0 surgery lines were litigated on the ECA distal end with 2-3 mm spacing and then the vascular between the two surgery lines was cut. The distal end of ECA was pulled until it formed a straight line with the ICA. An incision was cut on ECA and a nylon line was inserted through ECA into ICA. After the artery clip was loosen, the nylon line was pushed on into the brain through ICA and inserted in depth of 18.5±0.5 mm when resistance was felt slightly. The nylon line reached a smaller anterior cerebral artery through the beginning of MCA and then the blood flow obstruction in right MCA was established. the animals were kept in anesthesia during the obstruction. After 2 hours of obstruction, the nylon line was gently pulled out to ECA stub to form reperfusion. During the surgery process, the animals were irradiated by table lamp of 100 W to maintain the body temperature. The room temperature was kept in range of 23-25° C.
(§2) 2.4 Experimental Grouping and Administration • Sham operation group (intravenous injection of normal saline after 3 hours of ischemia); • Model group (intravenous injection of 50 mg/kg hydroxypropyl β-cyclodextrin after 3 hours of ischemia); • Nimodipine group (1 mg/kg, administered after 3 hours of ischemia); • Pinocembrin racemate group (1 mg/kg, 5 mg/kg, administered after 3, 6 and 8 hours of ischemia); • (R)-pinocembrin group (1 mg/kg, 5 mg/kg, administered after 3 and 6 hours of ischemia); • (S)-pinocembrin group (1 mg/kg, 5 mg/kg, administered after 3 and 6 hours of ischemia).
(§3) First administration was performed by intravenous injection, and intraperitoneal injection was carried out once 12 hours later with a dose 1.5 times of that for intravenous injection.
Neurobehavioral examination was performed respectively when the animals were awake after surgery and before the animals were put to death. Bederson's score was adopted (see details in Example 2, 1. Neurobehavioral Examination).

tMCAO rats [2] = experiment: Infarct volume (TTC), tMCAO time window study; settings: 2 hours ischemia and 24 hours reperfusion
Method: as §1, §2, §3
After neurobehavioral scoring, the rats were put to death by decollation and their brain tissues were taken out quickly and put into a refrigerator of −20° C. 10 min later, the brain tissues were moved to an environment of room temperature. After the olfactory bulb, cerebellar and lower brain stem were resected, the brain tissue was cut into six continuous coronal slices with an interval of 2 mm. Then the brain slices were quickly put into 5 ml solution containing 2% TTC and incubated at a constant temperature of 37° C. and in a condition of darkness for 30 min. During the time, the brain slices were tipped every 5 min. […] Every group of brain slices were put in order and photographed. The photographs were processed by an image analysis system and the infarct areas in each slice were calculated. The infarct volume of each slice was calculated via multiplying the infarct area by thickness of slice (2 mm), and the infarct volume was the sum of infarct volumes of all slices. The infarct volume percentage was expressed as: sick-side infarct volume/total sick-side brain volume.

plasma fibrinogen = experiment: Plasma fibrinogen assay (ELISA) in SHRSP; set-up: Plasma fibrinogen: unit not given here; settings: SHRSP rats
Method: The mixture was centrifuged for 15 min at 3000 rpm and plasma fibrinogen in liquid supernatant was determined by euzymelinked immunosorbent assay (ELISA).

`O=C1CC(c2ccccc2)Oc2cc(O)cc(O)c21` (racemic) [Pinocembrin racemate, pinocembrin racemate] was tested, and the “regional cerebral blood flow (rCBF)” value (MCAO rats; time point 10 min, 3 mg/kg) was 99.91 ± 7.27 % of baseline value, the “regional cerebral blood flow (rCBF)” value (MCAO rats; time point 10 min, 10 mg/kg) was 99.91 ± 7.27 % of baseline value and the “regional cerebral blood flow (rCBF)” value (MCAO rats; time point 10 min, 30 mg/kg) was 99.91 ± 7.27 % of baseline value. For the same molecule, the “regional cerebral blood flow (rCBF)” value (MCAO rats; time point 20 min, 3 mg/kg) was 32.03 ± 6.09 % of baseline value, the “regional cerebral blood flow (rCBF)” value (MCAO rats; time point 20 min, 10 mg/kg) was 31.45 ± 5.6 % of baseline value and the “regional cerebral blood flow (rCBF)” value (MCAO rats; time point 20 min, 30 mg/kg) was 37.98 ± 6.87 % of baseline value. The “regional cerebral blood flow (rCBF)” value (MCAO rats; time point 30 min, 3 mg/kg) was 40.76±6.58 % of baseline value, the “regional cerebral blood flow (rCBF)” value (MCAO rats; time point 30 min, 10 mg/kg) was 50.09±7.09 % of baseline value and the “regional cerebral blood flow (rCBF)” value (MCAO rats; time point 30 min, 30 mg/kg) was 53.28±8.03 % of baseline value. For the same molecule, the “regional cerebral blood flow (rCBF)” value (MCAO rats; time point 40 min, 3 mg/kg) was 41.59 ± 6.35 % of baseline value, the “regional cerebral blood flow (rCBF)” value (MCAO rats; time point 40 min, 10 mg/kg) was 47.72 ± 6.67 % of baseline value and the “regional cerebral blood flow (rCBF)” value (MCAO rats; time point 40 min, 30 mg/kg) was 54.92 ± 8.58 % of baseline value. For the same molecule, the “regional cerebral blood flow (rCBF)” value (MCAO rats; time point 50 min, 3 mg/kg) was 42.81 ± 5.25 % of baseline value, the “regional cerebral blood flow (rCBF)” value (MCAO rats; time point 50 min, 10 mg/kg) was 49.98 ± 7.1 % of baseline value and the “regional cerebral blood flow (rCBF)” value (MCAO rats; time point 50 min, 30 mg/kg) was 55.01 ± 6.25 % of baseline value. For the same molecule, the “regional cerebral blood flow (rCBF)” value (MCAO rats; time point 60 min, 3 mg/kg) was 40.8 ± 7.09 % of baseline value, the “regional cerebral blood flow (rCBF)” value (MCAO rats; time point 60 min, 10 mg/kg) was 48.99 ± 8.14 % of baseline value and the “regional cerebral blood flow (rCBF)” value (MCAO rats; time point 60 min, 30 mg/kg) was 57.95 ± 6.09 % of baseline value. The “regional cerebral blood flow (rCBF)” value (MCAO rats; time point 70 min, 3 mg/kg) was 41.69 ± 8.67 % of baseline value, the “regional cerebral blood flow (rCBF)” value (MCAO rats; time point 70 min, 10 mg/kg) was 47.01 ± 8.09 % of baseline value and the “regional cerebral blood flow (rCBF)” value (MCAO rats; time point 70 min, 30 mg/kg) was 53.75 ± 7.09 % of baseline value. For the same molecule, the “regional cerebral blood flow (rCBF)” value (MCAO rats; time point 80 min, 3 mg/kg) was 40.75 ± 7.1 % of baseline value, the “regional cerebral blood flow (rCBF)” value (MCAO rats; time point 80 min, 10 mg/kg) was 46.07 ± 9.08 % of baseline value and the “regional cerebral blood flow (rCBF)” value (MCAO rats; time point 80 min, 30 mg/kg) was 54.99 ± 6.67 % of baseline value. The “regional cerebral blood flow (rCBF)” value (MCAO rats; time point 90 min, 3 mg/kg) was 40.99 ± 8.14 % of baseline value, the “regional cerebral blood flow (rCBF)” value (MCAO rats; time point 90 min, 10 mg/kg) was 51.85 ± 8.03 % of baseline value and the “regional cerebral blood flow (rCBF)” value (MCAO rats; time point 90 min, 30 mg/kg) was 55.16 ± 7.1 % of baseline value. The “regional cerebral blood flow (rCBF)” value (MCAO rats; time point 100 min, 3 mg/kg) was 41.16 ± 6.25 % of baseline value, the “regional cerebral blood flow (rCBF)” value (MCAO rats; time point 100 min, 10 mg/kg) was 47.12 ± 8.58 % of baseline value and the “regional cerebral blood flow (rCBF)” value (MCAO rats; time point 100 min, 30 mg/kg) was 56.59 ± 8.14 % of baseline value. The “regional cerebral blood flow (rCBF)” value (MCAO rats; time point 110 min, 3 mg/kg) was 46.59 ± 7.09 % of baseline value, the “regional cerebral blood flow (rCBF)” value (MCAO rats; time point 110 min, 10 mg/kg) was 46.89 ± 6.25 % of baseline value and the “regional cerebral blood flow (rCBF)” value (MCAO rats; time point 110 min, 30 mg/kg) was 57.8 ± 7.27 % of baseline value. For the same molecule, the “regional cerebral blood flow (rCBF)” value (MCAO rats; time point 120 min, 3 mg/kg) was 45.8 ± 5.67 % of baseline value, the “regional cerebral blood flow (rCBF)” value (MCAO rats; time point 120 min, 10 mg/kg) was 51.8 ± 6.09 % of baseline value and the “regional cerebral blood flow (rCBF)” value (MCAO rats; time point 120 min, 30 mg/kg) was 64.09 ± 6.09 % of baseline value. The “regional cerebral blood flow (rCBF)” value (MCAO rats; time point 130 min, 3 mg/kg) was 46.99 ± 6.1 % of baseline value, the “regional cerebral blood flow (rCBF)” value (MCAO rats; time point 130 min, 10 mg/kg) was 56.59 ± 9.08 % of baseline value and the “regional cerebral blood flow (rCBF)” value (MCAO rats; time point 130 min, 30 mg/kg) was 61.72 ± 6.58 % of baseline value. The “regional cerebral blood flow (rCBF)” value (MCAO rats; time point 140 min, 3 mg/kg) was 48.01 ± 7.14 % of baseline value, the “regional cerebral blood flow (rCBF)” value (MCAO rats; time point 140 min, 10 mg/kg) was 57.8 ± 8.03 % of baseline value and the “regional cerebral blood flow (rCBF)” value (MCAO rats; time point 140 min, 30 mg/kg) was 64.98 ± 6.35 % of baseline value. The “regional cerebral blood flow (rCBF)” value (MCAO rats; time point 150 min, 3 mg/kg) was 44.07 ± 7.09 % of baseline value, the “regional cerebral blood flow (rCBF)” value (MCAO rats; time point 150 min, 10 mg/kg) was 56.99 ± 8.58 % of baseline value and the “regional cerebral blood flow (rCBF)” value (MCAO rats; time point 150 min, 30 mg/kg) was 63.99 ± 5.25 % of baseline value. For the same molecule, the “regional cerebral blood flow (rCBF)” value (MCAO rats; time point 160 min, 3 mg/kg) was 47.85 ± 6.81 % of baseline value, the “regional cerebral blood flow (rCBF)” value (MCAO rats; time point 160 min, 10 mg/kg) was 58.01 ± 7.89 % of baseline value and the “regional cerebral blood flow (rCBF)” value (MCAO rats; time point 160 min, 30 mg/kg) was 57.01 ± 7.09 % of baseline value. The “regional cerebral blood flow (rCBF)” value (MCAO rats; time point 170 min, 3 mg/kg) was 49.12 ± 6.08 % of baseline value, the “regional cerebral blood flow (rCBF)” value (MCAO rats; time point 170 min, 10 mg/kg) was 54.07 ± 6.81 % of baseline value and the “regional cerebral blood flow (rCBF)” value (MCAO rats; time point 170 min, 30 mg/kg) was 65.58 ± 8.67 % of baseline value. For the same molecule, the “regional cerebral blood flow (rCBF)” value (MCAO rats; time point 180 min, 3 mg/kg) was 49.89 ± 7.58 % of baseline value, the “regional cerebral blood flow (rCBF)” value (MCAO rats; time point 180 min, 10 mg/kg) was 55.9 ± 6.08 % of baseline value and the “regional cerebral blood flow (rCBF)” value (MCAO rats; time point 180 min, 30 mg/kg) was 62.96 ± 6.81 % of baseline value. For the same molecule, the Neurobehavioral value (tMCAO rats [1]; 1 mg/kg, 3 h) was 1.44 ± 0.72, the Neurobehavioral value (tMCAO rats [1]; 1 mg/kg, 6 h) was 1.68 ± 0.46 and the Neurobehavioral value (tMCAO rats [1]; 1 mg/kg, 8 h) was 1.88 ± 0.61. The Neurobehavioral value (tMCAO rats [1]; 5 mg/kg, 3 h) was 1.44 ± 0.52, the Neurobehavioral value (tMCAO rats [1]; 5 mg/kg, 6 h) was 1.66 ± 0.77 and the Neurobehavioral value (tMCAO rats [1]; 5 mg/kg, 8 h) was 1.91 ± 0.66. For the same molecule, the “Infarct percentage (%)” value (tMCAO rats [2]; 1 mg/kg, 3 h) was 16.59 ± 7.98 %, the “Infarct percentage (%)” value (tMCAO rats [2]; 1 mg/kg, 6 h) was 23.01 ± 11.00% and the “Infarct percentage (%)” value (tMCAO rats [2]; 1 mg/kg, 8 h) was 27.16 ± 13.69%. For the same molecule, the “Infarct percentage (%)” value (tMCAO rats [2]; 5 mg/kg, 3 h) was 13.64 ± 6.32 %, the “Infarct percentage (%)” value (tMCAO rats [2]; 5 mg/kg, 6 h) was 15.03 ± 4.07 % and the “Infarct percentage (%)” value (tMCAO rats [2]; 5 mg/kg, 8 h) was 28.32 ± 18.65%. For the same molecule, the Plasma fibrinogen (plasma fibrinogen; 3 mg/kg) was 2.79 ± 0.13, the Plasma fibrinogen (plasma fibrinogen; 10 mg/kg) was 2.62 ± 0.15 and the Plasma fibrinogen (plasma fibrinogen; 30 mg/kg) was 2.56 ± 0.42.

— US20110245334A1, “USE OF RACEMATES OF PINOCEMBRIN IN PREPARING MEDICAMENTS FOR TREATING STROKE” (CSPC Zhonggi Pharmaceutical Technology (Shijiazhuang) Co. …, priority 2008, published 2011)
